Reference: patent US20220218630A1, “METHODS AND FORMULATIONS FOR TREATING VISION DISORDERS” (JeniVision Inc., priority 2019, published 2022)

Legend:
[1] = test system: monkey longitudinal ciliary muscle; assay: Isolated monkey longitudinal ciliary muscle preparation contracted by carbachol (tissue bath); type: cell-based; settings: for contractile effects of a further application of carbachol following wash-out: after wash-out of drug, carbachol re-applied; for effect on ciliary muscle tone: drug added cumulatively 10^−8 M to 10^−5 M
Experimental: A total of 4 longitudinal strips of ciliary muscle were obtained from one monkey eye. Four tissue baths were used concurrently for each experiment. The monkey ciliary muscle preparations were incubated in Krebs bicarbonate buffer, aerated with 95% O2/5% CO2, containing 10^−6 M indomethacin. The preparations were placed under 200 mg tension with adjustment and allowed to equilibrate for 30 minutes. The temperature was maintained at 37° C. throughout the experiment. After equilibration, the four tissue baths received (50 μL×10^−3M) 10^−6 M carbachol (sufficient to produce a mid-level 40-60% maximal response). If 10^−6 M carbachol was insufficient to cause a meaningful contraction, then (50 μL×3×10^−3M) 3×10^−6 M or (50 μL×10^−2M) 10^−5M was used. The contractile response was allowed to become stable. Tissue tension was recorded on a multi-channel electrophysiological recorder.
When cumulative addition of the drug solutions was completed, the drugs were washed-out by flushing through with buffer three times at a selected volume. Four tissue baths again received 10^−6 M (or selected concentration) carbachol and a stable contractile response was established.

[2] = Ocular bioavailability following application to the periorbital skin of cynomolgus monkeys (LC/MS/MS); type: in vivo; settings: for tiotropium level in ciliary muscle / tiotropium level in plasma: 208 μg to periorbital skin of one eye
Experimental: The animals were euthanized at predetermined time points post-dosing: 1, 2, 4, 24 hours. A blood sample and ocular tissue specimens were then taken and prepared for LC/MS/MS analysis.

[3] = carbachol pre-contracted preparation

| access to the ciliary muscle ([2]; cynomolgus monkey, in vivo) | systemic exposure ([2]; cynomolgus monkey, in vivo) | SMILES | contractile effects of a further application of carbachol following wash-out [1] | effect on ciliary muscle tone [1, 3] | magnitude of relaxation ([1]; carbachol pre-contracted preparation, tiotropium compared with salmeterol) | tiotropium level in ciliary muscle ([2]; 1 hr post-dosing) [nM] | tiotropium level in plasma ([2]; 1 hr post-dosing) [nM] | tiotropium level in ciliary muscle ([2]; 2 hr post-dosing) [nM] | tiotropium level in plasma ([2]; 2 hr post-dosing) | tiotropium level in ciliary muscle ([2]; 4 hr post-dosing) [nM] | tiotropium level in plasma ([2]; 4 hr post-dosing) | tiotropium level in ciliary muscle ([2]; 24 hr post-dosing) [nM] | tiotropium level in plasma ([2]; 24 hr post-dosing) | systemic exposure ([2]; periorbital skin application, non-optimized aqueous formulations) |
| --- | --- | --- | --- | --- | --- | --- | --- | --- | --- | --- | --- | --- | --- | --- |
|  |  | C[N+]1(C)[C@@H]2C[C@@H](OC(=O)C(O)(c3cccs3)c3cccs3)C[C@H]1[C@@H]1O[C@@H]12 [tiotropium] | blunted | dose-related decrease | greater than that recorded for salmeterol | 49 | 4.5 | 77 | BLQ | 5.4 | BLQ | 0 | BLQ | minimal |
| pharmacologically active concentrations | absent | OCc1cc(C(O)CNCCCCCCOCCCCc2ccccc2)ccc1O (stereo not shown) [salmeterol] | blunted | dose-related decrease |  |  |  |  |  |  |  |  |  |  |
